Consider one compound from ChEMBL document CHEMBL5608246, “Membrane-Targeting Amphiphilic Honokiol Derivatives Containing an Oxazole Moiety as Potential Antibacterials against Methicillin-Resistant Staphylococcus aureus” (J Med Chem, 2024).

Activity calls are given as the source filed them. No cut-off for these calls is given here.

Data set [1] relates to Staphylococcus aureus. The data set is described as follows: Antibacterial activity against Staphylococcus aureus ATCC 29213 incubated for 16 to 18 hrs by broth dilution method. The class given is functional. The following applies: time 16-18 hrs.
For data set [2], the system named is Staphylococcus aureus. The data set is described as follows: Antibacterial activity against methicillin resistant Staphylococcus aureus N315 incubated for 16 to 18 hrs by broth dilution method. Format: functional. The note with it: time 16-18 hrs.
The test system of data set [3] is Staphylococcus aureus. The data set can be described thus: Antibacterial activity against methicillin resistant Staphylococcus aureus M21 incubated for 16 to 18 hrs by broth dilution method. The note with it: time 16-18 hrs. Format: functional.
Data set [4] in a line: Hemolytic activity in sheep RBC incubated for 1 hr. The class given is toxicity, cell-based, Ovis aries, Erythrocyte. The following applies: sheep red blood cells (erythrocytes).
The nature of data set [5]: Cytotoxicity against human L02 cells assessed as survival rate at 16 ug/ml incubated for 24 hrs by CCK8 assay. Format: toxicity, cell-based. The note with it: at 16 µg/mL, read-out: Survival.
The nature of data set [6]: Toxicity in Kunming mouse assessed as change in creatinine level at 20 mg/kg, sc measured after 24 hrs. Format: organism-based. The following applies: in vivo.
Data set [7] in a line: Toxicity in Kunming mouse assessed as liver abnormalities at 10 mg/kg, sc measured after 24 hrs. Format: organism-based. The following applies: in vivo.
Data set [8] concerns Staphylococcus aureus. The data set is described as follows: Antibacterial activity against methicillin resistant Staphylococcus aureus 20 infected in Kunming mouse skin abscess model assessed as appearance of smooth back skin at 10 mg/kg, sc measured after 2 hrs. The class given is functional, organism-based.
Data set [9] in a line: Toxicity in Kunming mouse skin abscess model infected with methicillin resistant Staphylococcus aureus assessed as lung damage at 5 to 10 mg/kg, sc measured after 2 hrs by H and E staining based assay. Format: organism-based. The following applies: in vivo, dose 5-10 mg/kg.
In another data set the test system is Cell membrane. The data set is described as follows: Induction of membrane disruption in methicillin resistant Staphylococcus aureus 20 assessed as viable cells with intact membrane at 32 ug/ml incubated for 2 hrs by SYTO9/PI staining based flow cytometry analysis (reference value: 98.7%). Format: cell membranes. The note with it: dose 32.0 µg/ml.

As for `C=CCc1cc(-c2ccc(OCCC[N+](C)(C)CC(=O)NCCCC)c(CC=C)c2)c2oc(-c3c(Cl)cccc3Cl)nc2c1.[Br-]`, the MIC is 2 µg/mL against Staphylococcus aureus [1], 4 µg/mL against Staphylococcus aureus [2] and 4 µg/mL against Staphylococcus aureus [3]. The same compound showed a 50% haemolytic concentration (HC50) at 1 h in data set [4] of 218 µg/mL. Further, the viability at 24 h, 16 ug/ml in data set [5] worked out at 75%. The Activity result in data set [6] was “Non-Toxic”; in data set [7], “Non-Toxic”; in [9] it was “Non-Toxic”; with Cell membrane it was 0.33%. In the data set on Staphylococcus aureus [8], the result was Active.
